Assay results as given in patent US20130178835A1, “IDENTIFYING SYNTHETIC LIGANDS THAT BIND T-CELLS FROM PATIENTS HAVING AN AUTOIMMUNE DISEASE” (The Board of Regents of the University of Texas System, priority 2009, published 2013).
“Also recorded” adds a separate entry of the source. Non-standard residues stand in square brackets, D forms with d. Residues, ends and D or L forms follow the SMILES beside them. Nrpe = C[C@@H](NCC(=O)O)c1ccccc1; NFurfurylGly = O=C(O)CNCc1ccco1; Nleu = CC(C)CNCC(=O)O; Nlys = NCCCCNCC(=O)O

Experiments:
[1] = system: Vα2.3/Vβ8.2 MBP Acl-11 TCR transgenic T cells; test: Flow cytometry binding assay (periodate cross-linking, streptavidin-APC MFI); set-up: species or system mouse; settings: biotin-DOPA-AG12A 1-500 μM, cross-linked with periodate; MFI fitted with Graphpad Prism; estimated
Protocol: Following isolation of CD4+ T cells from TCR transgenic mice and WT controls, cells were washed and resuspended in 0.1% PBS/BSA (FACS buffer). The cells were incubated with increasing concentrations (1 μM, 10 μM, 100 μM, 250 μM, or 500 μM) of either the biotin-DOPA-AG12A peptoid or a biotin-DOPA-control peptoid and incubated for 30 min at 37° C. 5 mM sodium periodate was added to the cells briefly to cross-link the peptoid to the target receptor. This reaction was quenched with DTT and the cells were washed twice with 0.1% PBS/BSA. Fc block (BD Biosciences) was added to the cells for 15 min on ice in order to reduce non-specific binding to Fc receptors. The cells were stained with 1 μg anti CD4-PerCp Cy5.5 antibody and 0.02 μg streptavidin-APC antibody (BD Biosciences) for 15 minutes on ice. The staining was followed by 2 washes with 0.1% PBS/BSA and the cells were run on a FACS Calibur flow cytometer to assess peptoid binding. The data were analyzed using Flowjo software (Treestar) to determine the mean fluorescent intensity and are shown as histograms. The mean fluorescent intensities (MFI) were plotted using Graphpad Prism software to determine an estimated Kd value and are depicted as a line graph.

[2] = system: CD4+ T cells from MBP Acl-11 TCR transgenic mice; test: Binding of quantum dot-labeled T cells to peptoid resynthesized on beads; set-up: species or system mouse; settings: Tentagel beads, red quantum dot-labeled T cells
From the text: Approximately 300,000 beads were swelled in DMF, washed with PBS, and equilibrated in complete RPMI 1640 media containing 3% BSA. CD4+ T cells isolated from either EAE or wild-type mice were resuspended in RPMI and labeled using quantum dots (Invitrogen) according to manufacturer's instructions. CD4+ T cells from EAE mice were labeled with Qtracker 655 (red) and CD4+ T cells from wild-type mice were labeled with Qtracker 565 (green). Labeled cells were mixed in a 1:1 ratio with a total of approximately 10×10^6 of each cell type. The cells were then incubated with the peptoid bead library overnight in a 37° C. incubator with 5% CO2 and gentle shaking. The beads were gently washed 2 times with RPMI media and were then visualized under a fluorescent microscope (Olympus BX-51) with excitation 340-380 nm using a DAPI filter (100×total magnification). Beads binding only to red labeled cells were selected manually using a 20 μl pipette. The “hit” beads were then washed, boiled with 1% SDS for 30 minutes and subjected to automated Edman sequencing.
(§1) To determine whether AG12A was binding to the autoreactive TCR, the inventors took advantage of the existence of transgenic mice, in which the vast majority of CD4+ T cells express the MBP Acl-11 specific TCR (Vα2.3/Vβ8.2 TCR) (Goverman et al., 1993). CD4+ T cells were isolated from these mice and tested for binding to AG12A. […]

[3] = system: CD4+ T cells from B10.PL wild-type control mice; test: as above; set-up: species or system mouse; settings: Tentagel beads, red quantum dot-labeled T cells
Protocol: Approximately 300,000 beads were swelled in DMF, washed with PBS, and equilibrated in complete RPMI 1640 media containing 3% BSA. CD4+ T cells isolated from either EAE or wild-type mice were resuspended in RPMI and labeled using quantum dots (Invitrogen) according to manufacturer's instructions. […] Labeled cells were mixed in a 1:1 ratio with a total of approximately 10×10^6 of each cell type. The cells were then incubated with the peptoid bead library overnight in a 37° C. incubator with 5% CO2 and gentle shaking. The beads were gently washed 2 times with RPMI media and were then visualized under a fluorescent microscope (Olympus BX-51) with excitation 340-380 nm using a DAPI filter (100×total magnification). Beads binding only to red labeled cells were selected manually using a 20 μl pipette. The “hit” beads were then washed, boiled with 1% SDS for 30 minutes and subjected to automated Edman sequencing.
as §1, with “AG12A. This was done in several ways. First, AG12A was resynthesized on beads, as was a control peptoid not selected as a T cell ligand (FIG. 6).” for “AG12A.”

[4] = system: B cells from B10.PL wild-type mice; test: CFSE proliferation assay; format: cell-based, mouse; settings: 1-500 μM peptoid, stimulated with LPS
Protocol: (§2) Following CD4+ T cell isolation, Vα2.3Vβ8.2 TCR transgenic T cells, B cells, or MOG-35-55 TCR transgenic T cells were labeled with CFSE (molecular probes) according to manufacturer's instructions. Briefly, cells were resuspended at a concentration of 1×10^6 per ml in PBS and incubated with 0.5 μM CFSE at 37° C. for 10 min. The staining was quenched with addition of 5 volumes of culture media containing 10% FBS. The cells were centrifuged, washed, and resuspended in complete RPMI 1640 media. The cells were then plated at 1×10^6 per ml. and incubated with increasing concentrations of either AG12A peptoid or a control peptoid (1 μM, 10 μM, 20 μM, 40 μM, 60 μM, 80 μM, 100 μM, 200 μM, or 500 μM) for 30 min at 37° C. Antigen presenting cells were isolated from spleens of WT B10.PL mice and 10 μg/ml of MBP Acl-11, MOG 35-55, or LPS were then added to the culture to stimulate the cells. The cells were left in culture for 5 days, stained with an anti-CD4-PerCp antibody (BD Biosciences), and run on the FACS Calibur flow cytometer to assess cell division. The data were analyzed using Flowjo software (Treestar) proliferation platform to determine percentage of dividing cells. The percent division was graphed using Graphpad Prism software and depicted as a line graph.

[5] = system: CD4+ MBP Acl-11 specific murine TCR transgenic T cells; test: CFSE proliferation assay; format: cell-based, mouse; settings: 1-500 μM peptoid, MBP Acl-11 peptide 10 μg/ml and antigen presenting cells, 5 days
Protocol: as §2

[6] = system: CD4+ T cells from MOG 35-55 TCR transgenic mice; test: CFSE proliferation assay; format: cell-based, mouse; settings: 1-500 μM peptoid, stimulated with MOG 35-55 peptide and antigen presenting cells
Protocol: as §2

CC(C)CN(CC(=O)N(CCCCN)CC(=O)N(CC(=O)N(CC(=O)N(CCCCN)CC(=O)N(CC(=O)N(CCCCN)CC(=O)N(CCCCN)CC(N)=O)CC(C)C)[C@H](C)c1ccccc1)Cc1ccco1)C(=O)CNCCCCN [AG12A] (H-[Nlys][Nleu][Nlys][NFurfurylGly][Nrpe][Nlys][Nleu][Nlys][Nlys]-NH2)
Kd [1]: ~40 µM
binding of T cells to peptoid displayed on beads [2]: bound; also recorded: bind to AG12A peptoid beads
binding of T cells to peptoid displayed on beads [3]: did not; also recorded: do not bind
inhibition of proliferation (percent division) [4]: nor did AG12A inhibit
inhibition of proliferation (percent division) [5]: inhibits proliferation
inhibition of proliferation (percent division) [6]: did not inhibit
